Measured values reported in patent US20260028374A1, “EPIDERMAL GROWTH FACTOR RECEPTOR INHIBITORS” (FILAMON LTD, priority 2023, published 2026).
Square brackets hold non-standard residues; d marks the D form. Peptide text beside a SMILES is read from it. 2Nal = N[C@@H](Cc1ccc2ccccc2c1)C(=O)O

What was measured:
EGFR = EGFR (Homo sapiens, UniProt P00533); assay: Western blot of EGFR in PC-3 cells; format: cell-based; settings: PC-3, 100 μM, 24 hours
Method: FIG. 3. (a) PC-3 cells treated with DMSO (0.5%), FLM-c2 (100 μM), D1-D3 (100 μM) or EGF (50 ng/mL) for 24 h, detected for EGFR and GAPDH. (b) PC-3 cells tagged with EGFR-EGFP and lysotracker treated with DMSO (0.5%) or D3 (100 μM) for 24 h.
FIG. 4. (a) PC-3 cells were treated with D1-D3 (100 μM) for 3, 16, 24 and 48 hours. EGFR and ß-Actin ratio was detected. (b) the EGFR:ß-Actin ratio was plotted after normalising to DMSO control.
PC-3 cells were seeded in a 6 well plate at 200,000 cells/well overnight at 37° C. and 5% C02. Media was removed, cells were washed with PBS and serum free media added 1 hour before treatment with FLM-c2, D1-D3 for 3-48 hours. After treatment, media was removed and cells were washed with ice cold PBS. PBS was removed and cells were scraped into 1 mL of PBS containing 5.3 mM of EDTA and centrifuged at 2500 g for 2 min. PBS was removed and cells were lysed with lysis buffer (PBS, 0.1% NP-40, 0.1% sodium deoxycholate, 150 mM NaCl, 1 mM EDTA, 1 mM dithiothreitol, 1 mM phenylmethylsulfonyl fluoride, and IX protease inhibitor cocktail)^17 and mixed with RM-2L Intelli-mixer for 30 min at 4° C. Lysates were then centrifuged at 12,000 g for 20 min at 4° C. 20 μg of lysate was added to 4 μL of Bolt reducing agent and 10 μL of reducing buffer (both reagents supplied by Thermo Fisher Scientific) for a final volume of 40 μL with PBS. Samples were boiled and run on a gel, transferred to a membrane and blocked for 1 hour in 5% skim milk at 25° C. Membrane was probed with either EGFR antibody #2232, GAPDH antibody #2118 or BS-Actin antibody #4970 (Cell Signalling) at 1:1000 in 5% skim milk/TBST overnight at 4° C. Each membrane was washed three times with 50 mL TBST for 5 mins and then incubated with the relevant secondary α-rabbit IgG-HRP-linked antibody (1:1000), for 1 hour at room temperature. The membrane was washed as described above and imaged with the Licor Odyssey.

[1] = tested on: EGFR, Rab5 and hGIIA localisation; assay: Live cell imaging of EGFR, Rab5 and hGIIA localisation in PC-3 cells; format: cell-based; settings: PC-3, c2 10 μM with hGIIA/AF647, 24 hours
Method: The effect of c2 on EGFR, Rab5 and hGIIA localisation was also examined in PC-3 cells. PC-3 cells were co-transfected with EGFR-EGFP and Rab5-mCherry before treatment with hGIIA/AF647 and c2 at 0, 1 and 10 μM.

[2] = tested on: hGIIA-driven eicosanoid production; settings: prostate cancer cells; Mann et al. in review; cited from earlier work
[3] = molecular target: T1, hGIIA interaction with EGFR (Homo sapiens, UniProt P00533); assay: Co-immunoprecipitation of hGIIA and EGFR in PC-3 cells; format: cell-based; settings: PC-3, hGIIA 2 μg/mL, FLM-c2 100 μM
T1 construct: endogenous in cells; host or cells: PC-3
Method: FIG. 1. (a), Amino acid sequence of human group IIA-secreted phospholipase A2 (hGIIA) predicted to interact with EGF-binding site of EGFR shown in magenta; helices shown as red braids; β strands as green arrows; and loops as blue lines. Sequence from which FLM-c2 is derived shown with orange box. (b), Prostate cancer cell line PC-3 incubated with hGIIA (2 μg/mL) and FLM-c2 (100 μM) for 3 hours before lysing and pulldown with hGIIA antibody followed by detection with EGFR antibody. (c), molecular modelling of EGF (pink ribbon) and (d), FLM-c2 analogue (cyclo-(Phe-Leu-Ser-Phe-Arg)) (stick diagram. Yellow, carbon; blue, nitrogen; red oxygen) binding to EGFR. EGFR is depicted as a surface model (red, basic surfaces; blue, acidic surfaces, yellow; cysteine residues; green, hydrophobic surfaces; white neutral surfaces). (e) PC-3 cells co-transfected with Rab5-mCherry (red), EGFR-GFP (green) and treated with hGIIA/AF647 (purple) as well as c2 at 1 μM and 10 μM for 24 hours. EGF (25 ng/mL) and Lapatinib (5 μM) were used as control treatments. N=3, >5 cells per replicate.
PC-3 cells were seeded in a 6-well plate at 300,000 cells/well and grown overnight at 37° C. and 5% CO2. Cells were then incubated with 2 μg/mL hGIIA with and without FLM-c2 (100 μM) for two hours. After incubation, cells were washed three times with 10 mL ice cold PBS for 2 min. […]

EGF-EGFR interaction = molecular target: T2, EGF-EGFR interaction (Homo sapiens, UniProt P00533); assay: EGF-EGFR AlphaLISA assay; format: binding; settings: in vitro AlphaLISA
T2 construct: purchased Perkin-Elmer
Method: FIG. 2. […] Representation of the molecules are as described in FIG. 1.
The AlphaLISA EGF/EGFR binding kit (Perkin-Elmer) was used as per the manufacturer's instructions. […] Finally, 5 μL of EGFR acceptor beads were added, and fluorescence imaged on a plate reader.

PC-3 cells = assay: MTS cell viability assay; format: cell-based; settings: PC-3, MTS, 72 hours, 0-250 μM
Method: FIG. 2. (a) Structure of FLM-c2 derivatives D1 (top), D2 (middle) and D3 (bottom) (b) Molecular modelling of compounds D1, D2 and D3. Representation of the molecules are as described in FIG. 1. (c) MTS assay of PC-3 cells treated with FLM-c2, D-1 D3 (0.1-250 μM).
To quantify cell toxicity of FLM-c2, the MTS (3-(4,5-dimethylthiazol-2-yl)-5-(3-carboxymethoxyphenyl)-2-(4-sulfophenyl)-2H-tetrazolium) assay was performed using CellTiter 96@AQueous One Solution Cell Proliferation Assay reagent (Promega, Madison, WI), as per the manufacturer's instructions. PC-3 cells were seeded at 2000 cells per well on a 96 well plate overnight at 37° C. and 5% C02. Cells were then treated with 0-250 μM with each of FLM-c2, D1, D2 and D3, which was incubated for 72 hours at 37° C. and 5% C02. Medium was replaced with 100 μL/well of phenol red-free MEM (Sigma-Aldrich) and 20 μL/well of the MTS reagent was added. After incubation for 3 hours in 37° C. with 5% C02, the absorbance was measured at 490 nm with Spectramax M5e.

T2 sequence (P00533 25-645 limits assumed): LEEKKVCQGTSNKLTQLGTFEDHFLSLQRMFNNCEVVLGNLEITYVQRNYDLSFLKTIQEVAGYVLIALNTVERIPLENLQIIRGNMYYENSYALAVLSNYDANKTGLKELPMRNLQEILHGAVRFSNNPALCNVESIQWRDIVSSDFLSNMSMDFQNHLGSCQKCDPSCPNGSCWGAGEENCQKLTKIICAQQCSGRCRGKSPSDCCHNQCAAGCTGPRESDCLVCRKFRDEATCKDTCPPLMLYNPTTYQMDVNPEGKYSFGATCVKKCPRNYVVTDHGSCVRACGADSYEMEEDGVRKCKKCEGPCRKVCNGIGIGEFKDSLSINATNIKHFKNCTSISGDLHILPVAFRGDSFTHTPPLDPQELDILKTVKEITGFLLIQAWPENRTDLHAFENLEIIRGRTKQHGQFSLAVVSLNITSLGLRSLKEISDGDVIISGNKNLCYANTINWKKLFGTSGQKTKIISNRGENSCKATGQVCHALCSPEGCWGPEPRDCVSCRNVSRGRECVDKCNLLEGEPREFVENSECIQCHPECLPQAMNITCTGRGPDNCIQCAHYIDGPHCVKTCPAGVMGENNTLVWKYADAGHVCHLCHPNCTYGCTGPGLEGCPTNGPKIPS
T1 sequence (P00533 25-1210): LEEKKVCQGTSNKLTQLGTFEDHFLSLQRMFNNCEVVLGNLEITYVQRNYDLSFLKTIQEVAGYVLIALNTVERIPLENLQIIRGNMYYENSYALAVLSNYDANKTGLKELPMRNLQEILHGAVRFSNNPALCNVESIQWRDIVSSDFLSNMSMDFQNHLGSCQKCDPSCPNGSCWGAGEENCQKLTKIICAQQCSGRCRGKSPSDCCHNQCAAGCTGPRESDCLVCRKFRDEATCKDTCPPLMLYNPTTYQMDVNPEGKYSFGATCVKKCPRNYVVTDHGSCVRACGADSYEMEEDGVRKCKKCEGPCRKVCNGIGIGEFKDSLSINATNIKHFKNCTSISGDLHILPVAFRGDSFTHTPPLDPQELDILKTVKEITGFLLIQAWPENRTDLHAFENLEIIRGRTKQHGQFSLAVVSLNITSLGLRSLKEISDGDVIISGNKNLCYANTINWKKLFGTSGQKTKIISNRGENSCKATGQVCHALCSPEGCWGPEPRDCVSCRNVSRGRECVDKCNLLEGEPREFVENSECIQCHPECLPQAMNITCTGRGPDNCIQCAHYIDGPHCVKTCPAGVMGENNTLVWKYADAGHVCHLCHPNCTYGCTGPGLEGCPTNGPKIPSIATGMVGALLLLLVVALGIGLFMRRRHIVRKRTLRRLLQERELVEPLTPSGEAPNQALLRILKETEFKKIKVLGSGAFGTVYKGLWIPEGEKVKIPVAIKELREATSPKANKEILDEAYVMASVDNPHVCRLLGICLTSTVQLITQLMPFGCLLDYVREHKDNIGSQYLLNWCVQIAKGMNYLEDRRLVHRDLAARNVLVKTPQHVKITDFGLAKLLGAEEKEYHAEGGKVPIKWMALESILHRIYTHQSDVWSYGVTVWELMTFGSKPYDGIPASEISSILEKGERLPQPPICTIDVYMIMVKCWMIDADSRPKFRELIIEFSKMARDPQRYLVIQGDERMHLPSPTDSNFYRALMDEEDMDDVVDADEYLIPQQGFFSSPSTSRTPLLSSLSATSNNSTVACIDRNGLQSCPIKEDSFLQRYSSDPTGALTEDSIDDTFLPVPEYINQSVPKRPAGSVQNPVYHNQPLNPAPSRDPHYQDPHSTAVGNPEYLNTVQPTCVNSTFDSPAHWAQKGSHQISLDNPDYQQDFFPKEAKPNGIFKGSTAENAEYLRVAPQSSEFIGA
EGFR, sequence (P00533 25-1210): as above

Structure (SMILES): CC(C)C[C@@H]1NC(=O)[C@H](Cc2ccc3ccccc3c2)NC(=O)[C@H](CCCNC(=N)N)NC(=O)[C@H](Cc2ccc3ccccc3c2)NC(=O)[C@H](CO)NC1=O [FLM-c2, cyclo-((2-Nal)-Leu-Ser-(2-Nal)-Arg)] (cyclo([2Nal]LS[2Nal]R))
- EGFR degradation by western blot (EGFR): did not
- effect on EGFR, Rab5 and hGIIA localisation [1]: increased hGIIA/AF647 and Rab5-mCherry punctate size, as well as circularisation of EGFR-GFP expression
- inhibition of hGIIA-driven eicosanoid production [2]: known to inhibit hGIIA-driven eicosanoid production
- inhibition of hGIIA-EGFR interaction (EGFR signal after pulldown with hGIIA antibody) [3]: able to inhibit this interaction
- potency order in inhibiting the EGF/EGFR interaction (EGF-EGFR interaction): FLM-c2>D1>D2>D3
- inhibition of the EGF/EGFR interaction (EGF-EGFR interaction; 0.01-200 μM): inhibited the EGF/EGFR interaction at high concentrations
- IC50 (PC-3 cells): 211 µM
